Experiment [1] deals with recombinant MNK1 (Homo sapiens (Human), UniProt Q9BUB5). As to the kind of experiment: MNK Biochemical Enzymatic Assay (ADP-Glo kinase assay), MNK1. Particulars: 10 nM recombinant MNK1, 300 μM ATP. Here is the method:
Compounds are screened for MNK inhibition using the ADP-Glo kinase assay kit (Promega, catalogue No. V9101). All kinase reactions are performed in Reaction Buffer E (15 mM HEPES pH7.4, 20 mM NaCl, 1 mM EGTA, 10 mM MgCl2, 0.1 mg/ml BGG, and 0.02% Tween-20). Final MNK 1 reactions contained 10 nM recombinant MNK1 (Life Technologies, PR9138A), 100 μM MNK substrate peptide Ac-TATKSGSTTKNR-NH2 (American Peptide Company), 300 μM ATP, and varying concentrations of the inhibitory compound of interest. Final MNK2 reactions contained 3 nM recombinant MNK2 (Life Technologies, PV5607), 50 μM MNK substrate peptide Ac-TATKSGSTTKNR-NH2 (American Peptide Company), 10 μM ATP, and varying concentrations of the inhibitory compound of interest. Final DMSO concentration in each reaction is 1%.
(§1) Kinase reactions are carried out in 96-well half-area white flat-bottom polystyrene plates in a final volume of 25 μl. MNK1/2 enzymes are pre-incubated with compound and peptide substrate for 5 minutes prior to the addition of ATP. After the addition of ATP, kinase reactions are incubated at room temperature for 40 minutes. Reactions are subsequently stopped by the addition of 25 μl of ADP-Glo Reagent and incubating for an additional 40 minutes. The final luminescent signal used for kinase activity readout is produced by the addition of 45 μl of Kinase Detection Reagent (ADP-Glo kit, Promega) and incubating for 40 minutes. The luminescent signal is detected using a Victor 2 multilabel counter (Perkin Elmer) and the concentration of compound necessary to achieve inhibition of enzyme activity by 50% (IC50) is calculated using signals from an 8-point compound dilution series.
To this end, IC50 values of less than 0.01 μM are labeled as “+++”, from 0.01 to 0.1 μM are labeled as “++”, and greater than 0.1 to 10.0 μM are labeled as “+” (NA means “not available”).

Experiment [2] has as its system Phosphorylated eIF4E. As to the kind of experiment: peIF4E Signaling Cellular Assay (CisBio peIF4E HTRF). The experiment is classed as cell-based. Particulars: cells incubated with compound for 2 hrs at 37° C. As to the method: Phosphorylated eIF4E is assayed using the CisBio peIF4E HTRF® assay kit (CisBio, catalogue No. 64EF4PEG). Cells are plated in 96-well tissue-culture treated plate in appropriate growth medium (90 μL). Compounds (10×) are diluted using 3-fold serial dilutions in cell culture medium and added to cells. Plates are incubated for 2 hrs at 37° C. The cell supernatant is carefully removed either by aspirating supernatant or by flicking the plate. Immediately 50 μL of supplemented lysis buffer (IX) is added and incubated for at least 30 minutes at room temperature under shaking. After homogenization by pipetting up and down, 16 μL of cell lysate is transferred from the 96-well cell-culture plate to a 384-well small volume white plate, 4 μL of premixed antibody solutions (vol/vol) is prepared in the detection buffer and added. The plate is covered with a plate sealer and incubated overnight at room temperature. The fluorescence emissions at two different wavelengths are read (665 nm and 620 nm) on a Wallac Victor2. Emission ratios are converted into percent inhibitions and imported into GraphPad Prism software. […] IC50 values are determined using a nonlinear regression model available in GraphPad Prism 5.
To this end, IC50 values of less than 0.05 μM are labeled as “+++”, from 0.05 to 1.0 μM are labeled as “++”, greater than 1.0 to 100 μM are labeled as “+”, and NA means “not available”.
On the technique in general: TR-FRET usually uses a lanthanide donor and a delayed reading to cut background.

For experiment [3], the target named is recombinant MNK2 (Homo sapiens (Human), UniProt Q9HBH9). As to the kind of experiment: MNK Biochemical Enzymatic Assay (ADP-Glo kinase assay), MNK2. Here is the method:
Compounds are screened for MNK inhibition using the ADP-Glo kinase assay kit (Promega, catalogue No. V9101). All kinase reactions are performed in Reaction Buffer E (15 mM HEPES pH7.4, 20 mM NaCl, 1 mM EGTA, 10 mM MgCl2, 0.1 mg/ml BGG, and 0.02% Tween-20). […] Final DMSO concentration in each reaction is 1%.
as §1
Background: ADP-Glo first removes unused ATP, then detects ADP through luciferase.

Sequence of recombinant MNK1 (Q9BUB5 whole entry): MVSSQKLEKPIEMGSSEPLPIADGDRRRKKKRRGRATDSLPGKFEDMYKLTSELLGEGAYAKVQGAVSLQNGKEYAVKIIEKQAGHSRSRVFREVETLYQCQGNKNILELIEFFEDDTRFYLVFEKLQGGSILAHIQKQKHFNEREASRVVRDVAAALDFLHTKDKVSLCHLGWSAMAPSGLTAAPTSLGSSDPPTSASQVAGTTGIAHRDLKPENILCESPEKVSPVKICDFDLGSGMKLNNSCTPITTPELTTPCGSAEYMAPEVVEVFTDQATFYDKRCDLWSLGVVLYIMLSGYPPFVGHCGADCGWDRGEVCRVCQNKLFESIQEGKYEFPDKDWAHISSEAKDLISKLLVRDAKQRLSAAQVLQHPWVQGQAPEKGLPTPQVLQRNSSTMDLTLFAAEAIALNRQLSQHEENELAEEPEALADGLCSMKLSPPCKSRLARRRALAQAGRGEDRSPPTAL
Sequence of recombinant MNK2 (Q9HBH9 whole entry): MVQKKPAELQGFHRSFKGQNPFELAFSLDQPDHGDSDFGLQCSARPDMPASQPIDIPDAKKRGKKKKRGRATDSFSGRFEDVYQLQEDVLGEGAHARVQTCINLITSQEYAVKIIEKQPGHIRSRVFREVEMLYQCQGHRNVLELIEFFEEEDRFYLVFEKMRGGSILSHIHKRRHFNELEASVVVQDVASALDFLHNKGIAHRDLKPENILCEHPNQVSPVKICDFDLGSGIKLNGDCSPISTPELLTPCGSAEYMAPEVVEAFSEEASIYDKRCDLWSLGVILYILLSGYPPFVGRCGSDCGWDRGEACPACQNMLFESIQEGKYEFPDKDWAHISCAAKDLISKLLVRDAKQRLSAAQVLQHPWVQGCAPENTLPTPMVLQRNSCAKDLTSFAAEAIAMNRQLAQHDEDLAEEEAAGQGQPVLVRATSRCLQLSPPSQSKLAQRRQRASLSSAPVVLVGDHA

The term IC50 denotes the concentration that gives 50% inhibition. Consider `O=C1NCc2cc(-n3ccc4cncnc43)ccc21` [Cpd. No. 1, 5-(7H-pyrrolo[2,3-d]pyrimidin-7-yl)isoindolin-1-one], for which the values for the IC50 in experiment [1], in experiment [2] and in experiment [3] were 0.1 to 10 µM, 1 to 100 µM and 0.1 to 10 µM, respectively.

Values taken from patent publication US11014926B2, “Pyrrolo-, pyrazolo-, imidazo-pyrimidine and pyridine compounds that inhibit MNK1 and MNK2” (EFFECTOR THERAPEUTICS, INC., priority 2015, dated 2021).
